IC50 data for 23 compounds are collected here from patent US12679843B2, “Pyrrolopyrimidine amines as complement inhibitors” (BioCryst Pharmaceuticals, Inc., priority 2020, dated 2026).

In general, IC50 refers to the midpoint of a concentration-inhibition curve.

The assay addresses Factor D (Homo sapiens, UniProt P00746). Put plainly: Factor D esterolytic assay (Z-Lys-SBzl thioester substrate, DTNB, 405 nm). The format is biochemical. To be noted: substrate Z-Lys-SBzl 1.29 mM, 100 mM HEPES, 500 mM NaCl, pH 7.5, 10% DMSO, tested a minimum of three times. The method, boiled down: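 Human Factor D hydrolysis of Z-Lys-SBzl (1.29 mM) monitored at 405 nm via DTNB thiol detection for 600 s, 690 nm background subtracted. Buffer 100 mM HEPES, 500 mM NaCl, pH 7.5, 10% DMSO; substrate added immediately or after room-temperature preincubation. IC50 from percent inhibition of rate, at least three tests.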

Factor D, sequence (P00746 26-253): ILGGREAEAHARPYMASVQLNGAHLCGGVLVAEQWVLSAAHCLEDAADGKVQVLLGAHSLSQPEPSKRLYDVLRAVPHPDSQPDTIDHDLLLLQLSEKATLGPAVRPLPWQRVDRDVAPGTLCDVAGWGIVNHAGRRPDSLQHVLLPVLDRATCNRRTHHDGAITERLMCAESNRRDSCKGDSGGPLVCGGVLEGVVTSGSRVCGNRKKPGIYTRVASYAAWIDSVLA

Turning to `Cc1cc(-c2cccnc2C(F)(F)F)cc2c3c(N)ncnc3n(CC(=O)N3[C@H](C(=O)Nc4cccc(Br)n4)C[C@@]4(C)C[C@@H]34)c12` [Compound 358c, (1R,3S,5R)-2-(2-(4-amino-8-methyl-6-(2-(trifluoromethyl)pyridin-3-yl)-9H-pyrimido[4,5-b]indol-9-yl)acetyl)-N-(6-bromopyridin-2-yl)-5-methyl-2-azabicyclo[3.1.0]hexane-3-carboxamide], the IC50 is 100 to 1000 nM.
For `Cc1cc(-c2ccco2)cc2c3c(N)ncnc3n(CC(=O)N3[C@H](C(=O)Nc4cccc(Br)n4)C[C@@]4(C)C[C@@H]34)c12` [Compound 359c, (1R,3S,5R)-2-(2-(4-amino-6-(furan-2-yl)-8-methyl-9H-pyrimido[4,5-b]indol-9-yl)acetyl)-N-(6-bromopyridin-2-yl)-5-methyl-2-azabicyclo[3.1.0]hexane-3-carboxamide] the value was less than 100 nM.
For `Cc1cc(C2CC2)cc2c3c(N)ncnc3n(CC(=O)N3[C@@H]4C[C@@H]4C[C@H]3C(=O)Nc3cccc(Br)n3)c12` [Compound 360c, (1R,3S,5R)-2-(2-(4-amino-6-cyclopropyl-8-methyl-9H-pyrimido[4,5-b]indol-9-yl)acetyl)-N-(6-bromopyridin-2-yl)-2-azabicyclo[3.1.0]hexane-3-carboxamide], the concentration for half-maximal inhibition (IC50) was less than 100 nM.
With `Cc1cc(C2CC2)cc2c3c(N)ncnc3n(CC(=O)N3[C@H](C(=O)Nc4cccc(Br)n4)C[C@@]4(C)C[C@@H]34)c12` [Compound 361a, (1R,3S,5R)-2-(2-(4-amino-6-cyclopropyl-8-methyl-9H-pyrimido[4,5-b]indol-9-yl)acetyl)-N-(6-bromopyridin-2-yl)-5-methyl-2-azabicyclo[3.1.0]hexane-3-carboxamide], the IC50 is less than 100 nM.
As for `Cc1cc(C(F)(F)F)nc2c3c(N)ncnc3n(CC(=O)N3[C@@H]4C[C@@H]4C[C@H]3C(=O)Nc3cccc(Br)n3)c12` [Compound 362f, (1R,3S,5R)-2-(2-(4-amino-8-methyl-6-(trifluoromethyl)-9H-pyrido[2′,3′:4,5]pyrrolo[2,3-d]pyrimidin-9-yl)acetyl)-N-(6-bromopyridin-2-yl)-2-azabicyclo[3.1.0]hexane-3-carboxamide], the IC50 was less than 100 nM.
For the compound `Cc1cc(C(F)(F)F)nc2c3c(N)ncnc3n(CC(=O)N3[C@H](C(=O)Nc4cccc(Br)n4)C[C@@]4(C)C[C@@H]34)c12` [Compound 363a, (1R,3S,5R)-2-(2-(4-amino-8-methyl-6-(trifluoromethyl)-9H-pyrido[2′,3′:4,5]pyrrolo[2,3-d]pyrimidin-9-yl)acetyl)-N-(6-bromopyridin-2-yl)-5-methyl-2-azabicyclo[3.1.0]hexane-3-carboxamide], the IC50 was less than 100 nM.
On to `Cc1ncc(NC(=O)[C@@H]2C[C@@]3(C)C[C@H]3N2C(=O)Cn2c3ncnc(N)c3c3cc(C(F)(F)F)cc(C)c32)nc1Br` [Compound 364d, (1R,3S,5R)-2-(2-(4-amino-8-methyl-6-(trifluoromethyl)-9H-pyrimido[4,5-b]indol-9-yl)acetyl)-N-(6-bromo-5-methylpyrazin-2-yl)-5-methyl-2-azabicyclo[3.1.0]hexane-3-carboxamide], for which the IC50 was less than 100 nM.
For `Cc1ncc(NC(=O)[C@@H]2C[C@@]3(C)C[C@H]3N2C(=O)Cn2c3ncnc(N)c3c3cc(C(F)(F)F)cc(C)c32)nc1Cl` [Compound 364e, (1R,3S,5R)-2-(2-(4-amino-8-methyl-6-(trifluoromethyl)-9H-pyrimido[4,5-b]indol-9-yl)acetyl)-N-(6-chloro-5-methylpyrazin-2-yl)-5-methyl-2-azabicyclo[3.1.0]hexane-3-carboxamide] the value was less than 100 nM; for `Cc1ccc(Cl)nc1NC(=O)[C@@H]1C[C@@H](F)CN1C(=O)Cn1c2ncnc(N)c2c2cc(C(F)(F)F)cc(C)c21` [Compound 365c, (2S,4R)-1-(2-(4-amino-8-methyl-6-(trifluoromethyl)-9H-pyrimido[4,5-b]indol-9-yl)acetyl)-N-(6-chloro-3-methylpyridin-2-yl)-4-fluoropyrrolidine-2-carboxamide], less than 100 nM; for `Cc1cc(F)c(Br)nc1NC(=O)[C@@H]1C[C@@H](F)CN1C(=O)Cn1c2ncnc(N)c2c2cc(C(F)(F)F)cc(C)c21` [Compound 366c, (2S,4R)-1-(2-(4-amino-8-methyl-6-(trifluoromethyl)-9H-pyrimido[4,5-b]indol-9-yl)acetyl)-N-(6-bromo-5-fluoro-3-methylpyridin-2-yl)-4-fluoropyrrolidine-2-carboxamide], less than 100 nM.
Turning to `COc1cc2c(cc1C(F)(F)F)c1c(N)ncnc1n2CC(=O)N1[C@@H]2C[C@@H]2C[C@H]1C(=O)Nc1cccc(Br)n1` [Compound 367g, (1R,3S,5R)-2-(2-(4-amino-7-methoxy-6-(trifluoromethyl)-9H-pyrimido[4,5-b]indol-9-yl)acetyl)-N-(6-bromopyridin-2-yl)-2-azabicyclo[3.1.0]hexane-3-carboxamide], the IC50 was less than 100 nM.
On to `COc1cc2c(cc1C(F)(F)F)c1c(N)ncnc1n2CC(=O)N1[C@H](C(=O)Nc2cccc(Br)n2)C[C@@]2(C)C[C@@H]12` [Compound 368a, (1R,3S,5R)-2-(2-(4-amino-7-methoxy-6-(trifluoromethyl)-9H-pyrimido[4,5-b]indol-9-yl)acetyl)-N-(6-bromopyridin-2-yl)-5-methyl-2-azabicyclo[3.1.0]hexane-3-carboxamide], for which the IC50 was less than 100 nM.
Turning to `Nc1ncnc2c1c1cc(C(F)(F)F)cc(F)c1n2CC(=O)N1[C@@H]2C[C@@H]2C[C@H]1C(=O)Nc1cccc(Br)n1` [Compound 369g, (1R,3S,5R)-2-(2-(4-amino-8-fluoro-6-(trifluoromethyl)-9H-pyrimido[4,5-b]indol-9-yl)acetyl)-N-(6-bromopyridin-2-yl)-2-azabicyclo[3.1.0]hexane-3-carboxamide], the IC50 was less than 100 nM.
For `Cc1cc(-c2ccco2)cc2c3c(N)ncnc3n(CC(=O)N3[C@@H]4C[C@@H]4C[C@H]3C(=O)Nc3cccc(Br)n3)c12` [Compound 370a, (1R,3S,5R)-2-(2-(4-amino-6-(furan-2-yl)-8-methyl-9H-pyrimido[4,5-b]indol-9-yl)acetyl)-N-(6-bromopyridin-2-yl)-2-azabicyclo[3.1.0]hexane-3-carboxamide] the value was less than 100 nM; for `Nc1ncnc2c1c1nc(-c3cccnc3)ccc1n2CC(=O)N1[C@@H]2C[C@@H]2C[C@H]1C(=O)Nc1cccc(Br)n1` [Compound 371c, (1R,3S,5R)-2-(2-(4-amino-6-(pyridin-3-yl)-9H-pyrido[2′,3′:4,5]pyrrolo[2,3-d]pyrimidin-9-yl)acetyl)-N-(6-bromopyridin-2-yl)-2-azabicyclo[3.1.0]hexane-3-carboxamide], 100 to 1000 nM; for `C[C@@]12C[C@@H](C(=O)Nc3cccc(Br)n3)N(C(=O)Cn3c4ccc(-c5cccnc5)nc4c4c(N)ncnc43)[C@@H]1C2` [Compound 372a, (1R,3S,5R)-2-(2-(4-amino-6-(pyridin-3-yl)-9H-pyrido[2′,3′:4,5]pyrrolo[2,3-d]pyrimidin-9-yl)acetyl)-N-(6-bromopyridin-2-yl)-5-methyl-2-azabicyclo[3.1.0]hexane-3-carboxamide], 100 to 1000 nM.
`C[C@@]12C[C@@H](C(=O)Nc3cccc(Br)n3)N(C(=O)Cn3c4ccc(-c5ccncc5)nc4c4c(N)ncnc43)[C@@H]1C2` [Compound 373a, (1R,3S,5R)-2-(2-(4-amino-6-(pyridin-4-yl)-9H-pyrido[2′,3′:4,5]pyrrolo[2,3-d]pyrimidin-9-yl)acetyl)-N-(6-bromopyridin-2-yl)-5-methyl-2-azabicyclo[3.1.0]hexane-3-carboxamide]: the IC50 was in the range of 100 to 1000 nM.
`COc1cc2c(cc1Br)c1c(N)ncnc1n2CC(=O)N1[C@@H]2C[C@@H]2C[C@H]1C(=O)Nc1cccc(Br)n1` [Compound 374g, (1R,3S,5R)-2-(2-(4-amino-6-bromo-7-methoxy-9H-pyrimido[4,5-b]indol-9-yl)acetyl)-N-(6-bromopyridin-2-yl)-2-azabicyclo[3.1.0]hexane-3-carboxamide]: the concentration for half-maximal inhibition (IC50) was less than 100 nM.
For the compound `COc1cc2c(cc1Br)c1c(N)ncnc1n2CC(=O)N1[C@H](C(=O)Nc2cccc(Br)n2)C[C@@]2(C)C[C@@H]12` [Compound 375a, (1R,3S,5R)-2-(2-(4-amino-6-bromo-7-methoxy-9H-pyrimido[4,5-b]indol-9-yl)acetyl)-N-(6-bromopyridin-2-yl)-5-methyl-2-azabicyclo[3.1.0]hexane-3-carboxamide], the IC50 is less than 100 nM.
`Nc1ncnc2c1c1cc(Br)cc(F)c1n2CC(=O)N1[C@@H]2C[C@@H]2C[C@H]1C(=O)Nc1cccc(Br)n1` [Compound 376g, (1R,3S,5R)-2-(2-(4-amino-6-bromo-8-fluoro-9H-pyrimido[4,5-b]indol-9-yl)acetyl)-N-(6-bromopyridin-2-yl)-2-azabicyclo[3.1.0]hexane-3-carboxamide]: the IC50 is less than 100 nM.
Regarding `C[C@@]12C[C@@H](C(=O)Nc3cccc(Br)n3)N(C(=O)Cn3c4ncnc(N)c4c4cc(Br)cc(F)c43)[C@@H]1C2` [Compound 377a, (1R,3S,5R)-2-(2-(4-amino-6-bromo-8-fluoro-9H-pyrimido[4,5-b]indol-9-yl)acetyl)-N-(6-bromopyridin-2-yl)-5-methyl-2-azabicyclo[3.1.0]hexane-3-carboxamide], the IC50 was less than 100 nM.
For `Cc1cc(-c2ccccn2)cc2c3c(N)ncnc3n(CC(=O)N3[C@H](C(=O)Nc4cccc(Br)n4)C[C@@]4(C)C[C@@H]34)c12` [Compound 378c, (1R,3S,5R)-2-(2-(4-amino-8-methyl-6-(pyridin-2-yl)-9H-pyrimido[4,5-b]indol-9-yl)acetyl)-N-(6-bromopyridin-2-yl)-5-methyl-2-azabicyclo[3.1.0]hexane-3-carboxamide], the IC50 is less than 100 nM.
For `Cc1cc2c(cc1Br)c1c(N)ncnc1n2CC(=O)N1[C@@H]2C[C@@H]2C[C@H]1C(=O)Nc1cccc(Br)n1` [Compound 379h, (1R,3S,5R)-2-(2-(4-amino-6-bromo-7-methyl-9H-pyrimido[4,5-b]indol-9-yl)acetyl)-N-(6-bromopyridin-2-yl)-2-azabicyclo[3.1.0]hexane-3-carboxamide] the value was less than 100 nM.
